# Results taken from ChEMBL document CHEMBL1949518, “Synthesis and biological evaluation of some new 2-pyrazolines bearing benzene sulfonamide moiety as potential anti-inflammatory and anti-cancer agents” (Eur J Med Chem, 2011).
# Assays:
# Type in all cases: functional
# SF-295 = experiment: Antiproliferative activity against human SF295 cells assessed as cell growth at 10^-5 M after 48 hrs by SRB assay relative to control; details: SF-295, 48 h, read-out: Activity
# SR = experiment: Antiproliferative activity against human SR cells assessed as cell growth at 10^-5 M after 48 hrs by SRB assay relative to control; details: read-out: Activity
# RXF 393 = experiment: Antiproliferative activity against human RXF393 cells assessed as cell growth at 10^-5 M after 48 hrs by SRB assay relative to control; details: RXF 393, 48 h, read-out: Activity
# SF-268 = experiment: Antiproliferative activity against human SF268 cells assessed as cell growth at 10^-5 M after 48 hrs by SRB assay relative to control; details: SF-268, 48 h, read-out: Activity
# Rattus norvegicus = experiment: Antiinflammatory activity in Wistar rat assessed as inhibition of carrageenan-induced paw edema at 20 mg/kg, po administered 30 mins before carrageenan challenge measured after 3 hrs
# SW-620 = experiment: Antiproliferative activity against human SW620 cells assessed as cell growth at 10^-5 M after 48 hrs by SRB assay relative to control; details: SW-620, 48 h, read-out: Activity
# IGROV-1 = experiment: Antiproliferative activity against human IGROV1 cells assessed as cell growth at 10^-5 M after 48 hrs by SRB assay relative to control; details: IGROV-1, 48 h, read-out: Activity
# SF-539 = experiment: Antiproliferative activity against human SF539 cells assessed as cell growth at 10^-5 M after 48 hrs by SRB assay relative to control; details: SF-539, 48 h, read-out: Activity
# MDA-MB-231 = experiment: Antiproliferative activity against human MDA-MB-231 cells assessed as cell growth at 10^-5 M after 48 hrs by SRB assay relative to control; details: MDA-MB-231, 48 h, read-out: Activity
# A549 = experiment: Antiproliferative activity against human A549 cells assessed as cell growth at 10^-5 M after 48 hrs by SRB assay relative to control; details: A549, 48 h, read-out: Activity
# BT-549 = experiment: Antiproliferative activity against human BT549 cells assessed as cell growth at 10^-5 M after 48 hrs by SRB assay relative to control; details: BT-549, 48 h, read-out: Activity
# MDA-MB-435 = experiment: Antiproliferative activity against human MDA-MB-435 cells assessed as cell growth at 10^-5 M after 48 hrs by SRB assay relative to control; details: MDA-MB-435, 48 h, read-out: Activity
# NCI-H322M [1] = experiment: Antiproliferative activity against human NCI-H322M cells assessed as cell growth at 10^-5 M after 48 hrs by SRB assay relative to control; details: read-out: Activity
# SK-MEL-2 = experiment: Antiproliferative activity against human SK-MEL-2 cells assessed as cell growth at 10^-5 M after 48 hrs by SRB assay relative to control; details: SK-MEL-2, 48 h, read-out: Activity
# COLO 205 = experiment: Antiproliferative activity against human COLO205 cells assessed as cell growth at 10^-5 M after 48 hrs by SRB assay relative to control; details: COLO 205, 48 h, read-out: Activity
# 786-0 [2] = experiment: Antiproliferative activity against human 786-0 cells assessed as cell growth at 10^-5 M after 48 hrs by SRB assay relative to control; details: 786-0, 48 h, read-out: Activity
# NCI-H23 = experiment: Antiproliferative activity against human NCI-H23 cells assessed as cell growth at 10^-5 M after 48 hrs by SRB assay relative to control; details: NCI-H23, 48 h, read-out: Activity
# MCF7 = experiment: Antiproliferative activity against human MCF7 cells assessed as cell growth at 10^-5 M after 48 hrs by SRB assay relative to control; details: MCF7, 48 h, read-out: Activity
# NCI-H522 [3] = experiment: Antiproliferative activity against human NCI-H522 cells assessed as cell growth at 10^-5 M after 48 hrs by SRB assay relative to control; details: NCI-H522, 48 h, read-out: Activity
# PC-3 = experiment: Antiproliferative activity against human PC3 cells assessed as cell growth at 10^-5 M after 48 hrs by SRB assay relative to control; details: PC-3, 48 h, read-out: Activity
# M14 [4] = experiment: Antiproliferative activity against human M14 cells assessed as cell growth at 10^-5 M after 48 hrs by SRB assay relative to control; details: M14, 48 h, read-out: Activity
# HCT-15 = experiment: Antiproliferative activity against human HCT15 cells assessed as cell growth at 10^-5 M after 48 hrs by SRB assay relative to control; details: HCT-15, 48 h, read-out: Activity
# TK-10 = experiment: Antiproliferative activity against human TK10 cells assessed as cell growth at 10^-5 M after 48 hrs by SRB assay relative to control; details: TK-10, 48 h, read-out: Activity
# KM12 = experiment: Antiproliferative activity against human KM12 cells assessed as cell growth at 10^-5 M after 48 hrs by SRB assay relative to control; details: KM12, 48 h, read-out: Activity
# A498 = experiment: Antiproliferative activity against human A498 cells assessed as cell growth at 10^-5 M after 48 hrs by SRB assay relative to control; details: A498, 48 h, read-out: Activity
# SK-OV-3 = experiment: Antiproliferative activity against human SKOV3 cells assessed as cell growth at 10^-5 M after 48 hrs by SRB assay relative to control; details: SK-OV-3, 48 h, read-out: Activity
# NCI-H226 = experiment: Anticancer activity against human NCI-H226 cells after 48 hrs by SRB assay; details: NCI-H226, 48 h
# [5] = Anticancer activity against human Hs 578T cells after 48 hrs by SRB assay; details: for CC50: read-out: LC50 (the source's name)
# NCI-H322M [6] = experiment: Anticancer activity against human NCI-H322M cells after 48 hrs by SRB assay
# HOP-62 = experiment: Anticancer activity against human HOP62 cells after 48 hrs by SRB assay; details: HOP-62, 48 h
# M14 [7] = experiment: Anticancer activity against human M14 cells after 48 hrs by SRB assay; details: M14, 48 h; for CC50: read-out: LC50 (the source's name)
# NCI-H522 [8] = experiment: Anticancer activity against human NCI-H522 cells after 48 hrs by SRB assay; details: NCI-H522, 48 h
# EKVX = experiment: Anticancer activity against human EKVX cells after 48 hrs by SRB assay
# 786-0 [9] = experiment: Anticancer activity against human 786-0 cells after 48 hrs by SRB assay; details: 786-0, 48 h; for CC50: read-out: LC50 (the source's name)
structure (smiles),measurement,setting,value
COc1ccc(C2CC(c3c(O)cc(C)c(Cl)c3C)=NN2c2ccc(S(N)(=O)=O)cc2)cc1 (stereo not given),growth at 10 µM,SF-295,152%
same,growth at 10 µM,SR,41.5%
same,growth at 10 µM,RXF 393,111%
same,growth at 10 µM,SF-268,76.1%
same,inhibition in vivo at 20 mg/kg,Rattus norvegicus,46.7%
same,growth at 10 µM,SW-620,94.8%
same,growth at 10 µM,IGROV-1,71.9%
same,growth at 10 µM,SF-539,92.3%
same,growth at 10 µM,MDA-MB-231,71%
same,growth at 10 µM,A549,56%
same,growth at 10 µM,BT-549,119%
same,growth at 10 µM,MDA-MB-435,79.3%
same,growth at 10 µM,NCI-H322M [1],85.1%
same,growth at 10 µM,SK-MEL-2,94.3%
same,growth at 10 µM,COLO 205,102%
same,growth at 10 µM,786-0 [2],92.5%
same,growth at 10 µM,NCI-H23,108%
same,growth at 10 µM,MCF7,71.6%
same,growth at 10 µM,NCI-H522 [3],71.5%
same,growth at 10 µM,PC-3,56.2%
same,growth at 10 µM,M14 [4],77.8%
same,growth at 10 µM,HCT-15,92.2%
same,growth at 10 µM,TK-10,104%
same,growth at 10 µM,KM12,75%
same,growth at 10 µM,A498,93.2%
same,growth at 10 µM,SK-OV-3,101%
Cc1cc(O)c(C2=NN(c3ccc(S(N)(=O)=O)cc3)C(c3ccc(Cl)cc3)C2)c(C)c1Cl (stereo not given),growth at 10 µM,SF-295,6.34%
same,growth at 10 µM,SR,-22.2%
same,growth at 10 µM,RXF 393,93.4%
same,GI50,NCI-H226,13.4 µM
same,TGI,NCI-H226,29.4 µM
same,growth at 10 µM,SF-268,72.1%
same,inhibition in vivo at 20 mg/kg,Rattus norvegicus,80%
same,growth at 10 µM,SW-620,72.2%
same,growth at 10 µM,IGROV-1,34.1%
same,growth at 10 µM,SF-539,91.6%
same,growth at 10 µM,MDA-MB-231,103%
same,growth at 10 µM,A549,40.8%
same,growth at 10 µM,BT-549,95.7%
same,GI50,[5],23 µM
same,TGI,[5],62.3 µM
same,CC50,[5],100 µM
same,growth at 10 µM,MDA-MB-435,69.3%
same,GI50,NCI-H322M [6],18 µM
same,TGI,NCI-H322M [6],38.9 µM
same,growth at 10 µM,NCI-H322M [1],97.6%
same,growth at 10 µM,SK-MEL-2,92.5%
same,growth at 10 µM,COLO 205,76.2%
same,growth at 10 µM,786-0 [2],95.6%
same,growth at 10 µM,NCI-H23,79.3%
same,growth at 10 µM,MCF7,37.2%
same,GI50,HOP-62,18.6 µM
same,TGI,HOP-62,34.8 µM
same,growth at 10 µM,NCI-H522 [3],39.8%
same,growth at 10 µM,PC-3,13.6%
same,growth at 10 µM,M14 [4],89.3%
same,growth at 10 µM,HCT-15,80.5%
same,GI50,M14 [7],14 µM
same,TGI,M14 [7],29.4 µM
same,CC50,M14 [7],61.5 µM
same,growth at 10 µM,TK-10,113%
same,GI50,NCI-H522 [8],18.6 µM
same,TGI,NCI-H522 [8],48.4 µM
same,GI50,EKVX,13.3 µM
same,TGI,EKVX,36.1 µM
same,growth at 10 µM,KM12,62.4%
same,growth at 10 µM,A498,74.3%
same,GI50,786-0 [9],16.8 µM
same,TGI,786-0 [9],32.2 µM
same,CC50,786-0 [9],62 µM
same,growth at 10 µM,SK-OV-3,106%
Cc1cc(O)c(C2=NN(c3ccc(S(N)(=O)=O)cc3)C(c3ccc(N(C)C)cc3)C2)c(C)c1Cl (stereo not given),growth at 10 µM,SF-295,20.4%
same,growth at 10 µM,SR,-24.1%
same,growth at 10 µM,RXF 393,48.1%
same,GI50,NCI-H226,10.5 µM
same,LC50,NCI-H226,55.6 µM
same,TGI,NCI-H226,24.1 µM
same,growth at 10 µM,SF-268,61.7%
same,inhibition in vivo at 20 mg/kg,Rattus norvegicus,33%
same,growth at 10 µM,SW-620,48.5%
same,growth at 10 µM,IGROV-1,20.6%
same,growth at 10 µM,SF-539,79%
same,growth at 10 µM,MDA-MB-231,59%
same,growth at 10 µM,A549,33.2%
same,growth at 10 µM,BT-549,112%
same,GI50,[5],3.45 µM
same,TGI,[5],20 µM
same,CC50,[5],91.5 µM
same,growth at 10 µM,MDA-MB-435,38.6%
same,GI50,NCI-H322M [6],5.01 µM
same,LC50,NCI-H322M [6],52.9 µM
same,TGI,NCI-H322M [6],20.2 µM
same,growth at 10 µM,NCI-H322M [1],75.3%
same,growth at 10 µM,COLO 205,30.8%
same,growth at 10 µM,786-0 [2],43.3%
same,growth at 10 µM,NCI-H23,78.8%
same,growth at 10 µM,MCF7,13%
same,GI50,HOP-62,10.4 µM
same,LC50,HOP-62,52.1 µM
same,TGI,HOP-62,23.3 µM
same,growth at 10 µM,NCI-H522 [3],57.7%
same,growth at 10 µM,PC-3,12.1%
same,growth at 10 µM,M14 [4],39.1%
same,growth at 10 µM,HCT-15,65.2%
same,GI50,M14 [7],2.62 µM
same,TGI,M14 [7],10.4 µM
same,CC50,M14 [7],32.2 µM
same,growth at 10 µM,TK-10,80%
same,GI50,NCI-H522 [8],6.24 µM
same,LC50,NCI-H522 [8],58.8 µM
same,TGI,NCI-H522 [8],21.6 µM
same,GI50,EKVX,1.88 µM
same,LC50 (concentration killing 50% of cells),EKVX,59.3 µM
same,TGI,EKVX,13.6 µM
same,growth at 10 µM,KM12,29.1%
same,growth at 10 µM,A498,87.2%
same,GI50,786-0 [9],4.97 µM
same,TGI,786-0 [9],17.4 µM
same,CC50,786-0 [9],43.4 µM
same,growth at 10 µM,SK-OV-3,81.6%
